# Data taken from patent US20050250137A1, “Molecular targets of cancer and aging” (priority 2002, published 2005).
# Test: GoMiner gene ontology analysis of differentially regulated genes
# Set-up: species or system human
# [1] = Biological process: Bbiological—process unknown, GO 0000004, Total 232
# [2] = Biological process: Cell adhesion, GO 0007155, Total 361
# [3] = Biological process: Cell death, GO 0008219, Total 272
# [4] = Biological process: Cell differentiation, GO 0030154, Total 106
# [5] = Biological process: Cell motility, GO 0006928, Total 222
# [6] = Biological process: Cell organization and biogenesis, GO 0016043, Total 282
# [7] = Biological process: Cell proliferation, GO 0008283, Total 667
# [8] = Biological process: Cell-cell signaling, GO 0007267, Total 365
# [9] = Biological process: Metabolism, GO 0008152, Total 3192
# [10] = Biological process: Response to endogenous stimulus, GO 0009719, Total 134
# [11] = Biological process: Response to extracellular stimulus, GO 0009991, Total 10
# [12] = Biological process: Response to stress, GO 0006950, Total 501
# [13] = Biological process: Signal transduction, GO 0007165, Total 1321
# [14] = Biological process: Transport, GO 0006810, Total 873
# [15] = Biological process: alcohol metabolism, GO 0006066, Total 151
# [16] = Biological process: amine metabolism, GO 0009308, Total 175
# [17] = Biological process: amino acid and derivative metabolism, GO 0006519, Total 149
# [18] = Biological process: anti-apoptosis, GO 0006916, Total 59
# [19] = Biological process: apoptotic program, GO 0008632, Total 26
# [20] = Biological process: biosynthesis, GO 0009058, Total 525
# [21] = Biological process: carbohydrate metabolism, GO 0005975, Total 228
# [22] = Biological process: catabolism, GO 0009056, Total 450
# [23] = Biological process: cell cycle, GO 0007049, Total 442
# [24] = Biological process: cell migration, GO 0016477, Total 39
# [25] = Biological process: cell surface receptor linked signal transduction, GO 0007166, Total 588
# [26] = Biological process: cell—cell adhesion, GO 0016337, Total 124
# [27] = Biological process: cytokinesis, GO 0000910, Total 64
# [28] = Biological process: cytoplasm organization and biogenesis, GO 0007028, Total 166
# [29] = Biological process: electron transport, GO 0006118, Total 150
# [30] = Biological process: energy pathways, GO 0006091, Total 158
# [31] = Biological process: induction of apoptosis, GO 0006917, Total 83
# [32] = Biological process: induction of programmed cell death, GO 0012502, Total 83
# [33] = Biological process: intracellular signaling cascade, GO 0007242, Total 444
# [34] = Biological process: intracellular transport, GO 0046907, Total 258
# [35] = Biological process: ion transport, GO 0006811, Total 320
# [36] = Biological process: lipid metabolism, GO 0006629, Total 299
# [37] = Biological process: lymphocyte differentiation, GO 0030098, Total 22
# [38] = Biological process: nuclear organization and biogenesis, GO 0006997, Total 109
# [39] = Biological process: nucleobase, nucleoside, nucleotide and nucleic acid metabolism, GO 0006139, Total 1351
# [40] = Biological process: organic acid metabolism, GO 0006082, Total 226
# [41] = Biological process: phosphorus metabolism, GO 0006793, Total 423
# [42] = Biological process: protein metabolism, GO 0019538, Total 1170
# [43] = Biological process: protein transport, GO 0015031, Total 223
# [44] = Biological process: regulation of cell proliferation, GO 0042127, Total 175
# [45] = Biological process: regulation of metabolism, GO 0019222, Total 32
# [46] = Biological process: response to DNA damage stimulus (under Response to endogenous stimulus), GO 0006974, Total 133
# [47] = Biological process: response to DNA damage stimulus (under Response to stress), GO 0006974, Total 133
# [48] = Biological process: response to abiotic stimulus, GO 0009628, Total 224
# [49] = Biological process: response to biotic stimulus, GO 0009607, Total 552
# [50] = Biological process: response to external stimulus, GO 0009605, Total 813
# [51] = Biological process: response to pest/pathogen/parasite, GO 0009613, Total 287
# [52] = Biological process: response to wounding, GO 0009611, Total 173
# [53] = Biological process: taxis, GO 0042330, Total 77
# [54] = Biological process: vesicle-mediated transport, GO 0016192, Total 167
compound,measurement,setting,value
"Nc1ncn([C@H]2C[C@H](O)[C@@H](CO)O2)c(=O)n1 [5-aza-dC, 5-aza-2′-deoxycytidine]",5-aza-dC Down,[1],2
same,5-aza-dC Up,[1],6
same,5-aza-dC Down,[2],0
same,5-aza-dC Up,[2],7
same,5-aza-dC Down,[3],2
same,5-aza-dC Up,[3],15
same,5-aza-dC Down,[4],1
same,5-aza-dC Up,[4],5
same,5-aza-dC Down,[5],1
same,5-aza-dC Up,[5],1
same,5-aza-dC Down,[6],0
same,5-aza-dC Up,[6],12
same,5-aza-dC Down,[7],11
same,5-aza-dC Up,[7],18
same,5-aza-dC Down,[8],0
same,5-aza-dC Up,[8],11
same,5-aza-dC Down,[9],18
same,5-aza-dC Up,[9],78
same,5-aza-dC Down,[10],1
same,5-aza-dC Up,[10],2
same,5-aza-dC Down,[11],0
same,5-aza-dC Up,[11],1
same,5-aza-dC Down,[12],3
same,5-aza-dC Up,[12],21
same,5-aza-dC Down,[13],6
same,5-aza-dC Up,[13],33
same,5-aza-dC Down,[14],1
same,5-aza-dC Up,[14],12
same,5-aza-dC Down,[15],2
same,5-aza-dC Up,[15],4
same,5-aza-dC Down,[16],1
same,5-aza-dC Up,[16],3
same,5-aza-dC Down,[17],1
same,5-aza-dC Up,[17],3
same,5-aza-dC Down,[18],0
same,5-aza-dC Up,[18],5
same,5-aza-dC Down,[19],1
same,5-aza-dC Up,[19],3
same,5-aza-dC Down,[20],6
same,5-aza-dC Up,[20],7
same,5-aza-dC Down,[21],2
same,5-aza-dC Up,[21],4
same,5-aza-dC Down,[22],2
same,5-aza-dC Up,[22],9
same,5-aza-dC Down,[23],7
same,5-aza-dC Up,[23],14
same,5-aza-dC Down,[24],0
same,5-aza-dC Up,[24],1
same,5-aza-dC Down,[25],2
same,5-aza-dC Up,[25],14
same,5-aza-dC Down,[26],0
same,5-aza-dC Up,[26],1
same,5-aza-dC Down,[27],2
same,5-aza-dC Up,[27],0
same,5-aza-dC Down,[28],0
same,5-aza-dC Up,[28],1
same,5-aza-dC Down,[29],2
same,5-aza-dC Up,[29],4
same,5-aza-dC Down,[30],2
same,5-aza-dC Up,[30],1
same,5-aza-dC Down,[31],0
same,5-aza-dC Up,[31],3
same,5-aza-dC Down,[32],0
same,5-aza-dC Up,[32],3
same,5-aza-dC Down,[33],2
same,5-aza-dC Up,[33],10
same,5-aza-dC Down,[34],1
same,5-aza-dC Up,[34],6
same,5-aza-dC Down,[35],0
same,5-aza-dC Up,[35],2
same,5-aza-dC Down,[36],1
same,5-aza-dC Up,[36],4
same,5-aza-dC Down,[37],0
same,5-aza-dC Up,[37],3
same,5-aza-dC Down,[38],0
same,5-aza-dC Up,[38],11
same,5-aza-dC Down,[39],6
same,5-aza-dC Up,[39],41
same,5-aza-dC Down,[40],1
same,5-aza-dC Up,[40],3
same,5-aza-dC Down,[41],5
same,5-aza-dC Up,[41],9
same,5-aza-dC Down,[42],9
same,5-aza-dC Up,[42],27
same,5-aza-dC Down,[43],1
same,5-aza-dC Up,[43],7
same,5-aza-dC Down,[44],3
same,5-aza-dC Up,[44],8
same,5-aza-dC Down,[45],0
same,5-aza-dC Up,[45],1
same,5-aza-dC Down,[46],1
same,5-aza-dC Up,[46],2
same,5-aza-dC Down,[47],1
same,5-aza-dC Up,[47],2
same,5-aza-dC Down,[48],0
same,5-aza-dC Up,[48],8
same,5-aza-dC Down,[49],1
same,5-aza-dC Up,[49],26
same,5-aza-dC Down,[50],2
same,5-aza-dC Up,[50],30
same,5-aza-dC Down,[51],1
same,5-aza-dC Up,[51],17
same,5-aza-dC Down,[52],1
same,5-aza-dC Up,[52],14
same,5-aza-dC Down,[53],0
same,5-aza-dC Up,[53],7
same,5-aza-dC Down,[54],0
same,5-aza-dC Up,[54],2
same,5-aza-dC Down,"Cellular component: Cellular—component unknown, GO 0008372, Total 266",2
